Measurements from patent US4531001A, “2-β-D-ribofuranosylselenazole-4-carboxamide compounds” (priority 1983, dated 1985).
Converted amounts (≈) assume the structure as drawn. “And” between values parts separate entries of the source, which are not always exact repeats. Equal values may be shown once. “Also recorded” adds a separate entry of the source. Read-outs that look alike come from different tables or passages of the source.

Experiments:
MRC-5 cells = test: Toxicity to MRC-5 cells; settings: 1000 ug/ml (highest concentration tested)
Lewis lung carcinoma = test: Antitumor activity against Lewis lung carcinoma, Example 12 (Table 1); format: in vivo, B6 D2 F1 male mice; settings: for Treated Group Survival Time: median, control 19.0, 60-day test
Procedure: As illustrative examples of the antitumor use of COMPOUNDS 1 and 2, Examples 12 through 14, below, are given. […] The tests utilized in these illustrative examples were conducted by the Developmental Therapeutics Program, Division of Cancer Treatment, National Cancer Institute. The tests were supervised by this agency utilizing their standard protocols and procedures. All tests conformed to these protocols and all tests were evaluated under the criteria defined by these protocols. The following representative examples illustrate confirmed activity of the illustrative compounds of the invention against screening tumor systems of the National Cancer Institute.
For purposes of the following examples, the abbreviation IP stands for intraperitoneal and IV stands for intravenous. The mean and median survival times are calculated in instruction 14 (revised 6/78) of the Screening Data Summary, Developmental Therapeutics Program, Division of Cancer Treatment, National Cancer Institute. The contents of this Screening Data Summary including appropriate revisions are herein incorporated by reference.
In the illustrated examples below, the vehicle used as carrier for the drug was injected (minus any drug therein) into the control animals at the same level of use of the vehicle in the drug treated animals in order to eliminate any vehicle effect of the tests.
For example 12, B6 D2 F1 male mice were used and challenged with Lewis lung carcinoma. The median survival time of the test animals was compared to that of appropriate control animals.
In Example 12, forty control animals and ten test animals were used, each at dose levels indicated below in Table 1. For both the control group and the drug treated group, tumors were induced by IV injection on day zero followed by initiation of drug treatment on day one. For Example 12 water was used as the drug vehicle.
In both the control group and the drug treated group in Example 12, the animals were inoculated on day zero with a homogenate of 10^6 seed cells of Lewis lung carcinoma. For Example 12, drug treatment was started on day one and COMPOUND 1 given once daily for nine days. Day five was utilized as the cut-off date for deaths attributable to toxicity of the drug. […] Efficacy of treatment was determined by comparing median survival time of the control animals and is expressed as percentage increase of treated animals/control animals (T/C).
The test period was for sixty days and at the end of the sixty day period all animals surviving in the test groups were evaluated as either cured, no-takes, or tumor survivors.
In this example, the drug tested animals were injected IP with the dose level noted in Table I below. Ten animals were treated at each dose level. No control animals survived beyond day 23 with a median death rate of day 19.0.

DNA and RNA viruses = test: Antiviral activity against the DNA and RNA virus panel; format: cell-based
Description: (§1) Microbiol. 22, 797 (1971). A virus rating that is greater than 1.0 indicates definite antiviral activity. […] The results reported below were obtained by testing on Microtest II (Falcon Plastics) plastic panels with a monolayer of Vero or HeLa cells.

Para 3 = test: Antiviral activity (virus rating method); format: cell-based; settings: for Virus Rating: >1.0 definite, 0.5-0.9 moderate, <0.5 slight or no activity; for EC50: read-out: ED50 (the source's name)
Description: as §1

Reo 3 = test: Antiviral activity (virus rating method); format: cell-based; settings: for Virus Rating: >1.0 definite, 0.5-0.9 moderate, <0.5 slight or no activity; for EC50: read-out: ED50 (the source's name)
Description: as §1

Cox B1 = test: Antiviral activity (virus rating method); format: cell-based; settings: for Virus Rating: >1.0 definite, 0.5-0.9 moderate, <0.5 slight or no activity; for EC50: read-out: ED50 (the source's name)
Description: as §1

Cox B4 = test: Antiviral activity (virus rating method); format: cell-based; settings: for Virus Rating: >1.0 definite, 0.5-0.9 moderate, <0.5 slight or no activity
Description: as §1

Measles = test: Antiviral activity (virus rating method); format: cell-based; settings: for Virus Rating: >1.0 definite, 0.5-0.9 moderate, <0.5 slight or no activity; for EC50: Measles morbillivirus, read-out: ED50 (the source's name)
Description: as §1

Mumps = test: Antiviral activity (virus rating method); format: cell-based; settings: for Virus Rating: >1.0 definite, 0.5-0.9 moderate, <0.5 slight or no activity; for EC50: read-out: ED50 (the source's name)
Description: as §1

VV = test: Antiviral activity (virus rating method); format: cell-based; settings: for Virus Rating: >1.0 definite, 0.5-0.9 moderate, <0.5 slight or no activity; for EC50: read-out: ED50 (the source's name)
Description: as §1

HSV-2 = test: Antiviral activity (virus rating method); format: cell-based; settings: for Virus Rating: >1.0 definite, 0.5-0.9 moderate, <0.5 slight or no activity; for EC50: read-out: ED50 (the source's name)
Description: as §1

Ad-2 = test: Antiviral activity (virus rating method); format: cell-based
Description: as §1

HSV-1 = test: Antiviral activity (virus rating method); format: cell-based; settings: for Virus Rating: >1.0 definite, 0.5-0.9 moderate, <0.5 slight or no activity; for EC50: read-out: ED50 (the source's name)
Description: as §1

cell culture = test: Cytotoxicity in cell culture
Vero cells = test: Toxicity to Vero cells; settings: 1000 ug/ml (highest concentration tested)
[1] = 3 mg/kg IP once daily for nine days
[2] = 6 mg/kg IP once daily for nine days
[3] = 9 mg/kg IP once daily for nine days
[4] = 13 mg/kg IP once daily for nine days
[5] = 20 mg/kg IP once daily for nine days
[6] = 33 mg/kg IP once daily for nine days
[7] = 50 mg/kg IP once daily for nine days
[8] = 75 mg/kg IP once daily for nine days
[9] = HeLa, read-out: ED50 (the source's name)

NC(=O)c1c[se]c([C@@H]2O[C@H](CO)[C@@H](O)[C@H]2O)n1 [COMPOUND 1, 2-β-D-ribofuranosylselenazole-4-carboxamide]
toxicity to cells (MRC-5 cells): non-toxic
Cures (Lewis lung carcinoma; [1]): One and 1/10
Percent Treated Animal/Control Animal (T/C) (Lewis lung carcinoma; [1]): 152%
Treated Group Survival Time (Lewis lung carcinoma; [1]): 28.9
Cures (Lewis lung carcinoma; [2]): 1/10
Treated Group Survival Time (Lewis lung carcinoma; [2]): 12.0
Cures (Lewis lung carcinoma; [3]): 3/10
Treated Group Survival Time (Lewis lung carcinoma; [3]): 10.4
Cures (Lewis lung carcinoma; [4]): 5 out of 10 and 5/10
Percent Treated Animal/Control Animal (T/C) (Lewis lung carcinoma; [4]): 315%
Treated Group Survival Time (Lewis lung carcinoma; [4]): 60.0
Cures (Lewis lung carcinoma; [5]): 2/10
Treated Group Survival Time (Lewis lung carcinoma; [5]): 16.0
Cures (Lewis lung carcinoma; [6]): 3/10
Percent Treated Animal/Control Animal (T/C) (Lewis lung carcinoma; [6]): 94%
Treated Group Survival Time (Lewis lung carcinoma; [6]): 18.0
Cures (Lewis lung carcinoma; [7]): 1/10
Percent Treated Animal/Control Animal (T/C) (Lewis lung carcinoma; [7]): 94%
Treated Group Survival Time (Lewis lung carcinoma; [7]): 18.0
Cures (Lewis lung carcinoma; [8]): 7 out of 10 and 7/10
Percent Treated Animal/Control Animal (T/C) (Lewis lung carcinoma; [8]): 315%
Treated Group Survival Time (Lewis lung carcinoma; [8]): 60.0
survival of treated animals in words (Lewis lung carcinoma; 75 and 13 mg/kg IP): all of the treated animals survived
antitumor activity in words (Lewis lung carcinoma; Lewis lung carcinoma, mice): active against Lewis lung carcinoma; also recorded: outstanding activity against Lewis lung carcinoma
mortality attributable to drug toxicity (Lewis lung carcinoma; cut-off day five, 3-75 mg/kg IP once daily): no mortality attributable to drug toxicity
DN2 criteria of NCI (Lewis lung carcinoma; mouse, in vivo): successfully passed the DN (decision network) 2 criteria; also recorded: DN2 criteria of NCI were passed
antiviral activity in words (DNA and RNA viruses; DNA and RNA viruses, Vero or HeLa cells): showed activity against both small and large viruses of both DNA and RNA types; also recorded: good broad spectrum antiviral activity against both DNA and RNA viruses
inhibition of viral cytopathic effects in words (DNA and RNA viruses; cell culture, representative viruses): inhibits viral cytopathic effects in cell culture for representative viruses at extremely low dosage
Virus Rating (Para 3; HeLa): 2.2
EC50 (Para 3; HeLa): 1 µg/mL (≈ 3.26 µM)
type of antiviral activity (Para 3; Para-3, depending upon cell line): virusstatic
Virus Rating (Para 3; Vero): 2.6
EC50 (Para 3; Vero): 1 µg/mL (≈ 3.26 µM)
Virus Rating (Reo 3; HeLa): 2.7
EC50 (Reo 3; HeLa): 8 µg/mL (≈ 26 µM)
Virus Rating (Reo 3; Vero): 1.8
EC50 (Reo 3; Vero): 1 µg/mL (≈ 3.26 µM)
antiviral activity in words (Cox B1; HeLa cells, Picornaviridae (Cox B1)): Excellent antiviral activity
Virus Rating (Cox B1; HeLa): 1.8
EC50 (Cox B1; HeLa): 10 µg/mL (≈ 32.6 µM)
Virus Rating (Cox B1; Vero): 1.7
EC50 (Cox B1; Vero): 15 µg/mL (≈ 48.8 µM)
antiviral activity in words (Cox B4; HeLa cells, Picornaviridae (Cox B4)): Excellent antiviral activity
Virus Rating (Cox B4; HeLa): 2.3
EC50 (Cox B4; [9]): 6 µg/mL (≈ 19.5 µM)
EC50 (Cox B4; Vero, read-out: ED50): 1000 µg/mL (≈ 3260 µM)
Virus Rating (Cox B4; Vero): 0.0
Virus Rating (Measles; HeLa): 1.8
EC50 (Measles; HeLa): 2 µg/mL (≈ 6.51 µM)
EC50 (Measles; Vero): 1 µg/mL (≈ 3.26 µM)
Virus Rating (Measles; Vero): 2.0
Virus Rating (Mumps; HeLa): 1.0
EC50 (Mumps; HeLa): 1 µg/mL (≈ 3.26 µM)
Virus Rating (Mumps; Vero): 1.7
EC50 (Mumps; Vero): 5 µg/mL (≈ 16.3 µM)
Virus Rating (VV; HeLa): 2.4
EC50 (VV; HeLa): 2 µg/mL (≈ 6.51 µM)
type of antiviral activity (VV; Vaccinia, depending upon cell line): virucidal
Virus Rating (VV; Vero): 2.1
EC50 (VV; Vero): 3 µg/mL (≈ 9.77 µM)
Virus Rating (HSV-2; HeLa): 1.5
EC50 (HSV-2; Human alphaherpesvirus 2, HeLa): 4 µg/mL (≈ 13 µM)
EC50 (HSV-2; Human alphaherpesvirus 2, Vero): 10 µg/mL (≈ 32.6 µM)
Virus Rating (HSV-2; Vero): 1.5
antiviral activity in words (Ad-2; HeLa cells, Adenoviridae (Adeno-2)): Excellent antiviral activity
Virus Rating (Ad-2; HeLa, >1.0 definite, 0.5-0.9 moderate, <0.5 slight or no activity): 1.9
EC50 (Ad-2; [9]): 9 µg/mL (≈ 29.3 µM)
type of antiviral activity (HSV-1; HSV-1, depending upon cell line): virusstatic
Virus Rating (HSV-1; HeLa): 1.4
EC50 (HSV-1; Human alphaherpesvirus 1, HeLa): 2 µg/mL (≈ 6.51 µM)
EC50 (HSV-1; Human alphaherpesvirus 1, Vero): 30 µg/mL (≈ 97.7 µM)
Virus Rating (HSV-1; Vero): 1.2
cytotoxicity in words (cell culture): low cytotoxicity
toxicity to cells (Vero cells): non-toxic
